# Data reported in patent US10799501B2, “Combination of an inhibitor of PARP with an inhibitor of GSK-3 or DOT1L” (King's College London, priority 2015, dated 2020).
# Columns and labels:
# THP1 (MLL-AF9) = experiment: Humanized xenograft: NSG mice transplanted with THP1 cells, Olaparib treatment; type: in vivo, mouse
# Experimental: We established humanized models of AML1-ETO and PML-RARα leukemia in sub-lethally irradiated NOD/SCID/IL2Rg−/−(NSG, 1 dose 200 RADs) by transplanting 2×10^6 Kasumi (intra-femoral, IF) and 1×10^5 NB4-LR2 or 1×10^5 THP1 (intravenous, IV) cells. The day after the transplantation, mice were split into two groups and given intra-peritoneal injections of vehicle (10% HBC) or Olaparib (25 mg/kg in 10% HBC) daily for 2-4 weeks. The maximum tolerable dose was calculated by in vivo dose-response experiments. Mice were monitored daily until they developed symptoms of leukemia, when they were culled and bone marrow, spleen and liver harvested and analyzed by FACS. The engraftment of human donor cells was defined as human CD45/CD33 double positive by FACS.
# MLL-AF9 LSC = experiment: C57Bl6 mice transplanted with pretreated MLL-AF9 LSC, PARPi and GSK3i treatment; type: in vivo, mouse
# Experimental: For mouse MLL-AF9 LSC in vivo studies involving PARPi and GSK3i, MLL-AF9 LSC were pretreated in R20/20 with 4 mM LiCl or 1 uM Olaparib or combination for 3 days. Equal number 0.2×10^6 of live cells were transplanted into sublethally irradiated C57Bl6 mice. Continuous Olaparib and LiCO3 treatment was commenced on the day after irradiation and injection of cells. Mice were given 0.4% lithium carbonate containing diet (Harlan Laboratory) along with Olaparib by IP every other day for 4 weeks. The engraftment of mouse donor cells was defined as CD45.1+/CD45.2− by FACS.
# NB4-LR2 (PML-RARα) = experiment: In vitro PARPi treatment of human leukemic cell line NB4-LR2; type: cell-based
# Experimental: NB4-LR2 and THP1 cell lines (kindly provided by Dr Arthur Zelent and Professor Mel Greaves respectively) were cultured in RPMI (Invitrogen) supplemented with 10% selected FBS (R10), 2 mM L-Glutamine. Kasumi cell line (kindly provided by Dr Olaf Heidenreich) was cultured in RPMI-Hepes modified (Sigma) supplemented with 20% selected FBS and 2 mM L-[…]). Cell lines were validated by qPCR for their respective oncogenes. NIH3T3 and GP2 cell line was cultured in DMEM (Invitrogen) supplemented with 10% selected FBS and 2 mM L-Glutamine. Human primary AML cells were cultured in IMEM (Invitrogen) supplemented with […], 2 mM L-Glutamine, 10 ng/mL each of human cytokines, IL3, IL6, SCF, FLT3 ligand, and TPO. Cells were kept at 37° C. and 5% CO2. Use of human primary cells was approved by King's College London committee and consents of the patients were obtained. […] Colonies were scored 6-7 days after plating. […] Samples were then washed in PBS analysed at the FACS LSRII (BD Biosciences Pharmingen) with FACS Diva. […] Cells were counted in at least 5 fields for each slide, for a total of over 100 cells. The percentage of senescent cells was calculated by the percentage of the number of blue cell in the field.
# [1] = NSG mice succumbed with THP1 driven disease, Olaparib 25 mg/kg i.p. daily
# [2] = C57Bl6 mice, MLL-AF9 wild-type leukemia, cells pre-treated 3 days, then in vivo treatment 4 weeks
structure (smiles),measurement,setting,value
"O=C(c1cc(Cc2n[nH]c(=O)c3ccccc23)ccc1F)N1CCN(C(=O)C2CC2)CC1 [Olaparib, 4-[(3-[(4-cyclopropylcarbonyl)piperazin-4-yl]carbonyl)-4-fluorophenyl]methyl(2H)-phthalazin-1-one]",BM Engraftment (%),THP1 (MLL-AF9); [1],30.7 ± 33.27%
same,Disease Latency (days; median),THP1 (MLL-AF9); [1],81 days
same,Hematopoietic Liver Engraftment (%),THP1 (MLL-AF9); [1],27.81 ± 31.79%
same,Hematopoietic Spleen Engraftment (%),THP1 (MLL-AF9); [1],8.53 ± 6.946%
same,Liver,THP1 (MLL-AF9); [1],1.31 ± 0.153 g
same,Spleen,THP1 (MLL-AF9); [1],0.0822 ± 0.0301 g
same,survival of xenograft model transplanted with human THP1 cells,THP1 (MLL-AF9); THP1 cells carrying MLL-AF9,no effect on the survival
same,BM Engraftment (%),MLL-AF9 LSC; [2],80.23 ± 23.70%
same,Disease Latency (days; median),MLL-AF9 LSC; [2],45.8 days
same,Hematopoietic Liver Engraftment (%),MLL-AF9 LSC; [2],76.5 ± 19.21%
same,Hematopoietic Spleen Engraftment (%),MLL-AF9 LSC; [2],65.07 ± 43.46%
same,Liver,MLL-AF9 LSC; [2],2.868 ± 0.4089 g
same,Spleen,MLL-AF9 LSC; [2],1.218 ± 0.3266 g
same,survival,"MLL-AF9 LSC; pretreated MLL LSC in syngeneic mice, 80 days of observation, controls succumbed within 8 weeks",did not significantly extend the survival
same,senescence and apoptosis,NB4-LR2 (PML-RARα); PARPi 72 hrs / 4 days,effectively induce senescence and apoptosis
same,colony forming ability,"NB4-LR2 (PML-RARα); methylcellulose 7 days, 5 μM Olaparib",reduced the colony forming ability
